Test results published in publication PMC11494886, “Discovery and design of molecular glue enhancers of CDK12–DDB1 interactions for targeted degradation of cyclin K” (RSC Chemical Biology, 2024).

Columns and labels:
[1] = system: MDA-MB-231DDB1-shRNA cells; test: CellTiter-Glo viability assay, MDA-MB-231 DDB1-shRNA; assay type: cell-based, human; details: for EC50: Homo sapiens, MDA-MB-231 DDB1 shRNA, 72 hours, CellTiter-Glo, read-out: EC50 cell viability
Text: For stable genetic knock-down of DDB1 in cells, predesigned and validated TRC2-pLKO-puro shRNA plasmids for DDB1 (TRCN0000082855 and TRCN0000082856), and a non-targeting shRNA plasmid (SHC001) were obtained from Millipore Sigma. All plasmids were purified using the Qiagen Maxiprep kit (Qiagen). FuGENE HD 6 transfection reagent (Promega) was used for transfection of plasmids and lentiviral gene/shRNA constructs. Mission lentiviral packaging mix (Millipore Sigma) was used to package lentiviral plasmids into lentiviral particles in HEK293T cells, as per manufacturer's protocols. The resultant virus was concentrated using Vivaspin 20 centrifugal concentrators (Sartorius). MDA-MB-231 and HEK293T cells were transduced with lentivirus. Stable knocked down DDB1 (shDDB1-231 and shDDB1-HEK293T) cells were generated after selection with the antibiotic puromycin, and genetic knockdown was confirmed by western blotting.
(§1) Cell viability was measured by Cell Titer Glo assay kit (Promega, USA). EC50 was determined from the nonlinear regression and a four-parameter algorithm on the GraphPad Prism software.

HEK-293T cells = test: CellTiter-Glo viability assay, WT HEK-293T; assay type: cell-based; details: Homo sapiens, 72 hours, read-out: EC50 cell viability
Text: MDA-MB-231 (human triple-negative breast cancer cells) and HEK293T (human embryonic kidney cells) were purchased from the American type culture collection (ATCC) and maintained in Dulbecco's modified Eagle's medium (DMEM) (Gibco) supplemented with 10% (v/v) heat-inactivated fetal bovine serum (FBS) (Gibco) and penicillin/streptomycin (100 U mL^−1 each). HiBiT-CCNK KI A549 cells, purchased from Promega, were maintained in F12 medium supplemented with 10% (v/v) heat-inactivated fetal bovine serum (FBS) (Gibco) and penicillin/streptomycin (100 U mL^−1 each). DDB1-knockdown MDA-MB-231 and DDB1-knockdown HEK293T cell lines were maintained in the same media formulation as their corresponding wild-type cell lines. All cell lines were cultured at 37 °C in an incubator with CO2 levels maintained at 5%.
as §1

Cdk12/CycK = target: T1, Cdk12/CycK (Homo sapiens, UniProt Q9NYV4); test: Thermal stability (nanoDSF) of Cdk12/CycK; assay type: binding; details: Cdk12/CycK 5 μM, 3-fold molar excess of compound
T1 construct: GST (N, cleaved yes); made in house; host or cells: Sf9 insect cells (MultiBacTurbo), co-expressed with S. cerevisiae CAK1
T1 sequence (Q9NYV4 714-1063): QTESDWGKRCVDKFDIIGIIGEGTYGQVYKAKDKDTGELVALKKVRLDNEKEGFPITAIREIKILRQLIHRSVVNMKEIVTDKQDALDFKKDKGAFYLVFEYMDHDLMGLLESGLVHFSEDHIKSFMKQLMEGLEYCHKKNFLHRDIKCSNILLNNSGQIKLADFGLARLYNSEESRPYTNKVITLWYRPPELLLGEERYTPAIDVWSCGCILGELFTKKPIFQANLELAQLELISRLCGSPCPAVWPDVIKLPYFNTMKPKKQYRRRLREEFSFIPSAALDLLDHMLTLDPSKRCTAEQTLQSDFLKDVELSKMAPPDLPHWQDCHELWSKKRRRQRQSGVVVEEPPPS
T1 sequence (O75909 1-267 partner limits assumed): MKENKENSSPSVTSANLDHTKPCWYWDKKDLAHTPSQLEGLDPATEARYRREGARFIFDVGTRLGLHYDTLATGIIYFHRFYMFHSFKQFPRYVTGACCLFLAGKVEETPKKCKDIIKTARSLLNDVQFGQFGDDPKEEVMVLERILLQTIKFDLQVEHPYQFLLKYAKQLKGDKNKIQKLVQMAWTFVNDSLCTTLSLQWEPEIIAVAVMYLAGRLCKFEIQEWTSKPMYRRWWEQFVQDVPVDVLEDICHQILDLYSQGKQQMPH
Text: Synthetic genes, codon optimized for expression in Sf9 insect cells, comprising the kinase domain of human Cdk12 (residues 714–1063, UniProt accession number Q9NYV4) and cyclin box domains of human cyclin K (residues 1–267, UniProt accession number O75909) were purchased from GeneArt. The coding sequence of Cdk12 was integrated into the pACEBac1 acceptor vector, while CycK was introduced into pIDK donor vector. Both target vectors underwent modification, wherein a GST-affinity tag followed by a tobacco etch virus (TEV) protease cleavage site was introduced upstream of the protein coding sequence. A pIDC donor vector was employed to insert full-length CDK-activating kinase CAK1 (UniProt accession number P43568) from S. cerevisiae devoid of any affinity tag. Cre recombination was performed to combine all three vectors in vitro, resulting in fused vectors suitable for co-expression in Sf9 insect cells. […]
To investigate the thermal stability of proteins and protein complexes in solution, as well as to examine the impact of small molecular compounds on the proteins stability, the nano-differential scanning fluorimetry (nanoDSF) method was employed using a Prometheus NT.48 (NanoTemper) device. […] Thermal stability was monitored over a temperature range of 20–90 °C with a linear gradient of 1.5 °C min^−1, utilizing the PR.ThermControl software (NanoTemper). […]

Cdk12/CycK and DDB1ΔB = target: T2, Cdk12/CycK and DDB1ΔB (Homo sapiens, UniProt Q16531+Q9NYV4, DEL396-705); test: GST pulldown assay, recruitment of DDB1ΔB to Cdk12/CycK; assay type: binding; details: GST-Cdk12/GST-CycK bait, 5 μM compound, vs DMSO
T2 construct: the Cdk12 (714–1063)/CycK (1–267) complex and the DDB1ΔB protein; made in house; host or cells: Sf9 insect cells (MultiBacTurbo)
T2 sequence (Q9NYV4 714-1063, stated change not applied): as the sequence (Q9NYV4 714-1063) above
T2 sequence (O75909 1-267 partner limits assumed): as the sequence (O75909 1-267 partner limits assumed) above
T2 sequence (Q16531 with tags, fused parts or gaps DEL396-705): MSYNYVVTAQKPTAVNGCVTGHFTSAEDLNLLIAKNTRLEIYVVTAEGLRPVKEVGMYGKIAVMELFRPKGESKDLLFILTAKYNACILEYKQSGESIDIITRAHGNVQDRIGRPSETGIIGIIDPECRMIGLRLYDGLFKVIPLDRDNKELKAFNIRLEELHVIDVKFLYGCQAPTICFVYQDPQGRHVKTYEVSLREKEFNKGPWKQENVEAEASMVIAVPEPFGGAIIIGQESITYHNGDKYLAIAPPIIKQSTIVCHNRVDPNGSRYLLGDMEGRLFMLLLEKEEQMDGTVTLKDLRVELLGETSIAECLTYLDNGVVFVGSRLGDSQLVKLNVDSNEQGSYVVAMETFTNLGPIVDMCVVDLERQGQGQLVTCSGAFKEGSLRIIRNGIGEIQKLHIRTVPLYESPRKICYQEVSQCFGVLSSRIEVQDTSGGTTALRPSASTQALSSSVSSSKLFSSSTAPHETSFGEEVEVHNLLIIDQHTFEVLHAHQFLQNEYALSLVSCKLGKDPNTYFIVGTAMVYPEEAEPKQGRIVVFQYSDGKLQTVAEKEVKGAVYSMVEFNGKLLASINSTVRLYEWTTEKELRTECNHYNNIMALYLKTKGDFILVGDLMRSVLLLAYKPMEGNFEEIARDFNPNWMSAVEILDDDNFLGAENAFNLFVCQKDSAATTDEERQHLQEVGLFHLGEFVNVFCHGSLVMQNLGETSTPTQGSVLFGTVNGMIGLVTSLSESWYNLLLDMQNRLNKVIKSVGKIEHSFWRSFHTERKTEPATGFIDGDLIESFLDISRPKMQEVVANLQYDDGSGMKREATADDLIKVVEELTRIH
Protocol: The pulldown assay was utilized to identify drug-triggered protein–protein interactions involving the Cdk12 (714–1063)/CycK (1–267) complex and the DDB1ΔB protein. In this assay, purified GST-tagged Cdk12 construct complexed with GST-CycK was combined with equimolar amounts of His6-tagged DDB1ΔB (5 μM) in the presence of 5 μM of the respective small molecular compound in pulldown assay buffer (50 mM Hepes pH 7.4, 200 mM NaCl, 0.25 mM TCEP, 0.05% (v/v) Tween20), ensuring a 2% total DMSO concentration. Experimental controls included samples supplemented with 2% DMSO instead of compound as well as samples devoid of the GST-tagged Cdk12/CycK complex. Each sample was individually added to approximately 50 μL of pre-equilibrated glutathione agarose beads (Thermo Fisher Scientific). The bead suspensions were then subjected to a 2 h incubation period at room temperature with gentle agitation. After incubation, the beads were pelleted by centrifugation at 700 × g for 4 min, the supernatant was discarded, and the beads were washed three-times with 100 μL of pulldown assay buffer. Following the washing step, bound proteins were eluted from the beads with 50 μL of pulldown assay buffer supplemented with 10 mM GSH for 1 h at room temperature under rotation. Subsequently, the beads were again pelleted by centrifugation at 700 × g for 4 min and the resulting supernatants containing eluted protein fractions were mixed with 6 × SDS sample buffer at a 1 : 1 (v/v) ratio. The eluted protein samples were separated by SDS-PAGE and subjected to Coomassie brilliant blue staining for visualization and analysis.

SMILES	EC50 [1] [nM]	EC50 (HEK-293T cells) [nM]	ΔTm (elevation of melting temperature) (Cdk12/CycK)	recruitment of DDB1ΔB in pulldown (Cdk12/CycK and DDB1ΔB)	fold change of EC50 (DDB1 shRNA vs WT) ([1]; MDA-MB-231 DDB1 shRNA vs WT MDA-MB-231, 72 hours)
Cn1cc(-n2cnc3c(NCc4nc5cc(Cl)c(Cl)cc5[nH]4)nc(N4CCOCC4)nc32)cn1 [SR-4835]	218	188	+4.1 °C	enrichment of DDB1ΔB fractions	
CN(C)C/C=C/C(=O)Nc1ccc(C(=O)N2CCC[C@@H](Nc3ncc(Cl)c(-c4c[nH]c5ccccc45)n3)C2)cc1 [THZ531, reference compound]	65	128	+4.15 °C	incapable of recruiting the DDB1ΔB protein	0.9
